“And” between values parts separate entries of the source, which are not always exact repeats. Identical values can stand only once.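 Briefly, cells in 96-well plates were exposed to five compound concentrations for 48 h, and endpoints were estimated by linear interpolation. GI50 marks 50% less growth. TGI: total growth inhibition.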
Tests used:
Experiment in all cases: inhibition of tumour cell growth, NCI panel, 48 h
A498 renal = test system: A498 renal
HCT-15 colon = test system: HCT-15 colon
SF-268 CNS = test system: SF-268 CNS
SK-MEL-2 melanoma = test system: SK-MEL-2 melanoma
SW-620 colon = test system: SW-620 colon
UACC-257 melanoma = test system: UACC-257 melanoma
UACC-62 melanoma = test system: UACC-62 melanoma
TK-10 renal = test system: TK-10 renal
PC-3 prostate = test system: PC-3 prostate
T-47D breast = test system: T-47D breast

SMILES | TGI (A498 renal) | TGI (HCT-15 colon) | TGI (SF-268 CNS) | TGI (SK-MEL-2 melanoma) | TGI (SW-620 colon) | TGI (UACC-257 melanoma) | TGI (UACC-62 melanoma) | TGI (TK-10 renal) | GI50 (A498 renal) | GI50 (HCT-15 colon) | GI50 (PC-3 prostate) | TGI (PC-3 prostate) | GI50 (SF-268 CNS) | GI50 (SW-620 colon) | GI50 (T-47D breast) | TGI (T-47D breast) | GI50 (TK-10 renal) | GI50 (UACC-257 melanoma) | GI50 (UACC-62 melanoma) | GI50 (SK-MEL-2 melanoma)
CCOC(=O)C12CCCC1(O)N(NC(=O)c1cccc(Cl)c1)C(C)=C2C(=O)OC (stereo not drawn) | > 100 µM | > 100 µM | > 100 µM | > 100 µM | > 100 µM | > 100 µM | > 100 µM | – | – | – | – | – | – | – | – | – | – | – | – | –
OCCN1CCN(CCO)Cc2ccccc2OCCOc2ccccc2C1 | > 100 µM | > 100 µM | > 100 µM | > 100 µM | > 100 µM | > 100 µM | – | > 100 µM | – | – | – | – | – | – | – | – | – | – | – | –
O=c1ncc(-c2ccc(C(F)(F)F)cc2)c(NC2CCCCCC2)[nH]1 | 34 µM | 64.6 µM | 36.5 µM | – | 68.7 µM | 57.6 µM | 29.3 µM | 73.9 µM | 16.1 µM | 22.1 µM | 19 µM | 54.9 µM | 18.4 µM | 23.9 µM | 17.2 µM | 57.8 µM | 35.7 µM | 23.1 µM | 13.8 µM | –
NCCCNc1ccc2c(c1)[n+]([O-])c1ccccc1[n+]2[O-] | 47.8 µM | 66.3 µM | > 100 µM | – | > 100 µM | 83.2 µM | 49.2 µM | > 100 µM | – | – | – | > 100 µM | – | – | – | 69.6 µM | – | – | – | –
CCc1ccccc1NC(=O)/C(CC(=O)c1c(C)n([O-])c2ccccc2[n+]1=O)=N\NS(=O)(=O)c1ccc(C)cc1 | > 100 µM | > 100 µM | > 100 µM | > 100 µM | > 100 µM | 82.1 µM | 67 µM | > 100 µM | – | – | – | – | – | – | – | – | – | – | – | –
CCc1ccc(C2=C/C(=C/c3ccc(Cl)cc3)C(=O)N2CCc2ccc(S(N)(=O)=O)cc2)cc1 | – | 12.9 µM | 25.9 µM | 7.76 µM | 11.8 µM | 15.3 µM | 6.22 µM | 7.37 µM | – | 2.98 µM | 1.9 µM | 5.36 µM | 4.63 µM | 3 µM | 3.09 µM | 11.9 µM | 2.21 µM | 3.79 µM | 1.82 µM | 2.27 µM
Cc1ccc(-c2csc(N(C(=O)N3CCN(c4cc5c(cc4F)c(=O)c(C(=O)O)cn5C4CC4)CC3)c3ccccc3)n2)cc1 | 0.443 µM | – | > 100 µM | 1.75 µM | – | > 100 µM | – | 11.5 µM | 0.0363 µM | – | – | – | 0.432 µM | – | 0.381 µM | > 100 µM | 0.541 µM | 0.372 µM | – | 0.344 µM
O=c1[nH]cnc2c(C3OC(CO)C(O)C3O)[nH]nc12 (stereo not drawn) | > 100 µM | > 100 µM | – | – | > 100 µM | > 100 µM | > 100 µM | – | – | – | – | > 100 µM | – | – | – | > 100 µM | – | – | – | –
COc1ccc2[nH]c3c4c(c5cc(C(C)(C)C)ccc5c3c2c1)C(=O)N(c1ccccc1)C4=O | 61.6 µM | – | > 100 µM | > 100 µM | > 100 µM | > 100 µM | > 100 µM | > 100 µM | – | – | – | – | – | – | – | – | – | – | – | –
C/C(=N\O)c1sc(-n2nc(-c3ccccc3)cc2-c2ccccc2)nc1C | > 31.6 µM | 22.9 µM | 19.8 µM | > 65.6 µM | 19.6 µM | 21.3 µM | 16.9 µM | – | – | – | – | – | – | – | – | – | – | – | – | –
C[C@H](c1ccc(Cl)cc1N)N1C(=O)c2cc(I)ccc2N(CCCN2CCN(C)CC2)C(=O)[C@@H]1c1ccc(Cl)cc1 | 2.7 µM | 3.2 µM | 3.2 µM | 3.37 µM | 3.14 µM | 2.69 µM | 2.54 µM | 3.07 µM | 1.3 µM | 1.68 µM | – | – | 1.7 µM | 1.72 µM | – | – | 1.61 µM | 1.24 µM | 1.23 µM | 1.81 µM
CC1(C)CC23C(=O)N(c4ccccc4)C(=Nc4ccccc4)NC2=CC(C#N)=C(C#N)C3O1 (stereo not drawn) | > 100 µM | > 100 µM | > 100 µM | > 100 µM | > 100 µM | > 100 µM | > 100 µM | > 100 µM | – | – | – | – | – | – | – | – | – | – | – | –
CC(=O)CC(=O)N(CCN(C(=O)CC(C)=O)c1ccccc1)c1ccccc1 | > 100 µM | – | > 100 µM | > 100 µM | > 100 µM | > 100 µM | > 100 µM | > 100 µM | – | – | – | – | – | – | – | – | – | – | – | –
O=C1c2ccccc2C(=O)N1/N=C\c1ccc(Br)cc1 | > 100 µM | > 100 µM | > 100 µM | > 100 µM | > 100 µM | > 100 µM | > 100 µM | > 10 µM | > 100 µM | > 100 µM | – | – | > 100 µM | > 100 µM | – | – | – | > 100 µM | > 100 µM | > 100 µM
C=C(C)C1CC=C(C(=O)O)CC1 (stereo not drawn) | 4420 µM | 1670 µM | 4060 µM | 3220 µM | > 5000 µM | 3450 µM | 1450 µM | > 5000 µM | – | – | – | – | – | – | – | – | – | – | – | –
COc1cc(C(=O)C/C(CCC(=O)Nc2ccccc2[N+](=O)[O-])=N\NC(=O)C(N)=O)ccc1O | – | > 100 µM | > 100 µM | > 100 µM | > 100 µM | > 100 µM | > 100 µM | > 100 µM | – | – | – | – | – | – | – | – | – | – | – | –
CCCCCCCCCOC(=S)NC | 48.8 µM | 36.1 µM | 38.5 µM | 41 µM | 40.9 µM | – | 53.9 µM | 54.6 µM | – | – | – | – | – | – | – | – | – | – | – | –
O=S(=O)(/C=C/C=C/S(=O)(=O)c1ccccc1)c1ccccc1 | – | 2.7 µM and 0.795 µM | 8.06 µM and 5.4 µM | 5.68 µM and 3.47 µM | 0.433 µM and 2.26 µM | 1.9 µM and 4.82 µM | 2.43 µM and 1.88 µM | 2.95 µM and 2.69 µM | – | 0.189 µM | 1.9 µM | 7.38 µM and 3.98 µM | 2.51 µM | 0.316 µM | – | 2.69 µM | 1.35 µM | 2 µM | 0.352 µM | 1.4 µM
CC(C)C1C(=O)N2CCCC2C2(O)OC(NC(=O)C3C=C4c5cccc6[nH]cc(c56)CC4N(C)C3)(C(C)C)C(=O)N12 (stereo not drawn) | – | 54.9 µM | > 100 µM | 42.4 µM | > 100 µM | 76.2 µM | 55.7 µM | 68.6 µM | – | – | – | 87.3 µM | – | – | – | > 100 µM | – | – | – | –
CON(C)C(=O)C(Cc1ccccc1)NC(=O)OC(C)(C)C (stereo not drawn) | > 100 µM | > 100 µM | > 100 µM | – | > 100 µM | > 100 µM | > 100 µM | > 100 µM | – | – | – | > 100 µM | – | – | – | > 100 µM | – | – | – | –
